According to patent publication US20040110802A1, “Antibacterial benzoic acid derivatives” (priority 2002, published 2004):

System: SAUR 9218
Assay: MIC Test Method, standard agar dilution
Assay type: cell-based
Conditions: agar dilution, Mueller Hinton agar, incubated overnight at 35° C.; lowest concentration that inhibits visible growth; read-out: SAUR 9218 MIC
How it was run: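 Agar dilution in Mueller Hinton agar with serial 2-fold compound dilutions. Staphylococcus aureus strain 9218 spotted at approximately 10^4 to 10^5 cells per spot, incubated overnight at 35 °C; MIC (μg/ml) is the lowest concentration preventing visible growth.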

MIC, 4 µg/mL:
CCCn1c(C(=O)Nc2ccc(Cl)cc2C(=O)O)cc2ccccc21
CCCCn1c(C(=O)Nc2ccc(Cl)cc2C(=O)O)cc2ccccc21
CCCCCn1c(C(=O)Nc2ccc(Cl)cc2C(=O)O)cc2ccccc21
O=C(O)c1cc(Br)ccc1NC(=O)c1cc2ccccc2n1CC1CCCCC1
CCCCn1c(C(=O)Nc2ccc(Br)cc2C(=O)O)cc2ccccc21
CCCn1c(C(=O)Nc2ccc(Br)cc2C(=O)O)cc2ccccc21
O=C(Nc1ccc(Br)cc1C(=O)O)c1cc(OCc2ccccc2)ccn1
O=C(O)c1cc(Cl)ccc1NC(=O)c1cc2ccccc2n1Cc1ccccc1
O=C(O)c1cc(Br)ccc1NC(=O)c1cc2ccccc2n1Cc1ccccc1
CC(C)n1c(C(=O)Nc2ccc(Br)cc2C(=O)O)cc2ccccc21
Cn1c(C(=O)Nc2ccc(Cl)cc2C(=O)O)cc2ccccc21
CC(C)Cn1c(C(=O)Nc2ccc(C#N)cc2C(=O)O)cc2ccccc21
N#Cc1ccc(NC(=O)c2cc3ccccc3n2CCCc2ccccc2)c(C(=O)O)c1
O=C(O)c1cc(Cl)ccc1NC(=O)c1cc2ccccc2n1CCCc1ccccc1
O=C(O)c1cc(Br)ccc1NC(=O)c1cc2ccccc2n1CCCc1ccccc1
COCCOCCCSc1ccc(C(=O)Nc2ccc(Cl)cc2C(=O)O)cn1
N#Cc1ccc(NC(=O)c2nsc(Cl)c2Cl)c(C(=O)O)c1
Cc1nn(-c2ccccc2)nc1C(=O)Nc1ccc(C#N)cc1C(=O)O
O=C(Nc1ccc(Br)cc1C(=O)O)c1cc(CCCC2CCCCC2)on1
O=C(Nc1ccc(Cl)cc1C(=O)O)c1cc(CCCC2CCCCC2)on1

MIC, 16 µg/mL:
Cc1c(S(=O)(=O)Nc2ccc3c(c2)OCCO3)csc1C(=O)Nc1ccc(Br)cc1C(=O)O
COCCn1c(C(=O)Nc2ccc(Cl)cc2C(=O)O)cc2ccccc21
COCCn1c(C(=O)Nc2ccc(Br)cc2C(=O)O)cc2ccccc21

MIC, 0.125 µg/mL:
N#Cc1ccc(NC(=O)c2cc(-c3ccccc3Cl)on2)c(C(=O)O)c1
N#Cc1ccc(NC(=O)c2cc(-c3ccccc3F)on2)c(C(=O)O)c1
O=C(Nc1ccc(Cl)cc1C(=O)O)c1cc2cccc(S(=O)(=O)c3ccccc3)c2[nH]1
O=C(Nc1ccc(Br)cc1C(=O)O)c1cc2cccc(S(=O)(=O)c3ccccc3)c2[nH]1
Cn1c(C(=O)Nc2ccc(C#N)cc2C(=O)O)cc2cccc(S(=O)(=O)c3ccccc3)c21
N#Cc1ccc(NC(=O)c2cc(CCCc3ccccc3)on2)c(C(=O)O)c1
COc1ccccc1-c1cc(C(=O)Nc2ccc(C#N)cc2C(=O)O)no1
Cn1c(C(=O)Nc2ccc(Br)cc2C(=O)O)cc2cccc(S(=O)(=O)c3ccccc3)c21
Cn1c(C(=O)Nc2ccc(Cl)cc2C(=O)O)cc2cccc(S(=O)(=O)c3ccccc3)c21
N#Cc1ccc(NC(=O)c2cc3cccc(NC(=O)Cc4ccccc4)c3[nH]2)c(C(=O)O)c1
N#Cc1ccc(NC(=O)c2noc3ccccc23)c(C(=O)O)c1
COc1ccccc1-c1cc(C(=O)Nc2ccc(Br)cc2C(=O)O)no1
COc1ccccc1-c1cc(C(=O)Nc2ccc(Cl)cc2C(=O)O)no1
CCCCC(C)Sc1ccc(C(=O)Nc2ccc(C#N)cc2C(=O)O)cn1 (centres unmarked)
O=C(Nc1ccc(Br)cc1C(=O)O)c1cc(-c2ccccc2Cl)on1

MIC, 8 µg/mL:
Cc1c(S(=O)(=O)NCCc2ccc(N)cc2)csc1C(=O)Nc1ccc(Br)cc1C(=O)O
Cc1sc(C(=O)Nc2ccc(Br)cc2C(=O)O)cc1S(=O)(=O)Nc1ccc(F)c(Cl)c1
O=C(Nc1ccc(Br)cc1C(=O)O)c1csc(S(=O)(=O)N2CCc3ccc(Cl)cc32)c1
C=CCn1c(C(=O)Nc2ccc(Br)cc2C(=O)O)cc2ccccc21
O=C(O)c1cc(Br)ccc1NC(=O)c1cc(SCc2ccccc2)cc[n+]1[O-]

MIC, 2 µg/mL:
O=C(Nc1ccc(Br)cc1C(=O)O)c1csc(S(=O)(=O)N2CCc3ccccc32)c1
CCCCCn1c(C(=O)Nc2ccc(C#N)cc2C(=O)O)cc2ccccc21
CCCn1c(C(=O)Nc2ccc(C#N)cc2C(=O)O)cc2ccccc21
CCCCCn1c(C(=O)Nc2ccc(Br)cc2C(=O)O)cc2ccccc21
CC(C)n1c(C(=O)Nc2ccc(C#N)cc2C(=O)O)cc2ccccc21
CC(C)Cn1c(C(=O)Nc2ccc(Cl)cc2C(=O)O)cc2ccccc21
CC(C)Cn1c(C(=O)Nc2ccc(Br)cc2C(=O)O)cc2ccccc21
N#Cc1ccc(NC(=O)c2ccc(SCCCCO)nc2)c(C(=O)O)c1
COc1ccccc1-c1cnc(C(=O)Nc2ccc(Br)cc2C(=O)O)o1
COc1ccc(-c2cnc(C(=O)Nc3ccc(Br)cc3C(=O)O)o2)cc1
O=C(Nc1ccc(Br)cc1C(=O)O)c1ncc(-c2ccc3c(c2)OCO3)o1
N#Cc1ccc(NC(=O)c2cc3cccc(NC(=O)c4ccccc4)c3[nH]2)c(C(=O)O)c1
CC(=O)OCC(=O)Nc1cccc2cc(C(=O)Nc3ccc(C#N)cc3C(=O)O)[nH]c12
N#Cc1ccc(NC(=O)c2cc3cccc(NC(=O)C4CCCC4)c3[nH]2)c(C(=O)O)c1

MIC, 64 µg/mL:
Cc1c(S(=O)(=O)Nc2ccc(N3CCOCC3)cc2)csc1C(=O)Nc1ccc(Br)cc1C(=O)O
CCN(CC)c1ccc(NS(=O)(=O)c2csc(C(=O)Nc3ccc(Br)cc3C(=O)O)c2C)cc1
N#Cc1ccc(/C=C/c2cc(-c3ccccc3)on2)c(C(=O)O)c1

MIC, 0.25 µg/mL:
N#Cc1ccc(NC(=O)c2ccc(SCc3nsc(Cl)n3)nc2)c(C(=O)O)c1
CC(=O)OCCCCSc1ccc(C(=O)Nc2ccc(C#N)cc2C(=O)O)cn1
COc1ccc(-c2cc(C(=O)Nc3ccc(Cl)cc3C(=O)O)no2)cc1
N#Cc1ccc(NC(=O)c2cc(-c3ccccc3C(F)(F)F)on2)c(C(=O)O)c1
Cc1c(C(=O)Nc2ccc(C#N)cc2C(=O)O)noc1-c1ccccc1
N#Cc1ccc(NC(=O)c2cc(CCCC3CCCCC3)on2)c(C(=O)O)c1
O=C(Nc1ccc(Br)cc1C(=O)O)c1cc(CCCc2ccccc2)on1
CCC(CC)Sc1ccc(C(=O)Nc2ccc(C#N)cc2C(=O)O)cn1

MIC, 1 µg/mL:
Cc1sc(C(=O)Nc2ccc(Br)cc2C(=O)O)cc1S(=O)(=O)N1CCc2ccc(Cl)cc21
C=CCn1c(C(=O)Nc2ccc(C#N)cc2C(=O)O)cc2ccccc21
N#Cc1ccc(NC(=O)c2cc3ccccc3n2CC2CCCCC2)c(C(=O)O)c1
C=CCn1c(C(=O)Nc2ccc(Cl)cc2C(=O)O)cc2ccccc21
N#Cc1ccc(NC(=O)c2ccc(SCc3ncon3)nc2)c(C(=O)O)c1
N#Cc1ccc(NC(=O)c2cc(-c3ccc(C(F)(F)F)cc3)on2)c(C(=O)O)c1
COc1ccc(-c2cnc(C(=O)Nc3ccc(C#N)cc3C(=O)O)o2)cc1
COc1ccccc1-c1cnc(C(=O)Nc2ccc(C#N)cc2C(=O)O)o1
CC(C)(C)c1cc(C(=O)Nc2ccc(C#N)cc2C(=O)O)no1
Cc1noc(C)c1-c1cc(C(=O)Nc2ccc(C#N)cc2C(=O)O)no1
O=C(Nc1ccc(Cl)cc1C(=O)O)c1cc(-c2ccccc2C(F)(F)F)on1
O=C(Nc1ccc(Br)cc1C(=O)O)c1cc(-c2ccc(C(F)(F)F)cc2)on1
O=C(Nc1ccc(Br)cc1C(=O)O)c1ncc(-c2ccccc2)o1
N#Cc1ccc(NC(=O)c2cc3ccccc3cn2)c(C(=O)O)c1
N#Cc1ccc(NC(=O)c2cc3cccc(N)c3[nH]2)c(C(=O)O)c1
N#Cc1ccc(NC(=O)c2ncc(-c3ccc(F)cc3)o2)c(C(=O)O)c1
COc1cccc(-c2cnc(C(=O)Nc3ccc(Br)cc3C(=O)O)o2)c1

MIC, 32 µg/mL:
CCCCn1c(C(=O)Nc2ccc(C#N)cc2C(=O)O)cc2ccccc21
O=C(O)c1cc(Cl)ccc1/C=C/c1cc(-c2ccccc2)on1
O=C(O)c1cc(Br)ccc1NC(=O)c1cc(OCc2ccccc2)cc[n+]1[O-]
Cc1cc(NS(=O)(=O)c2ccc(-c3cc(C(=O)Nc4ccc(Br)cc4C(=O)O)no3)cc2)no1

MIC, > 128 µg/mL:
O=C(Nc1ccc(Br)cc1C(=O)O)c1csc(S(=O)(=O)N2CC3CC2CN3Cc2ccccc2)c1 (centres unmarked)
O=C(O)c1cc(Br)ccc1NC(=O)c1cc(Cl)cc[n+]1[O-]

MIC, 0.5 µg/mL:
COCCOCCCSc1ccc(C(=O)Nc2ccc(Br)cc2C(=O)O)cn1
COCCn1c(C(=O)Nc2ccc(C#N)cc2C(=O)O)cc2ccccc21
O=C(O)c1cc(Cl)ccc1NC(=O)c1cc2ccccc2n1CC1CCCCC1
N#Cc1ccc(NC(=O)c2nsc(-c3ccccc3)c2Cl)c(C(=O)O)c1
N#Cc1ccc(NC(=O)c2cc(-c3ccccc3)no2)c(C(=O)O)c1
N#Cc1ccc(NC(=O)c2cc(OCc3ccccc3)ccn2)c(C(=O)O)c1
COc1ccc(-c2cc(C(=O)Nc3ccc(C#N)cc3C(=O)O)no2)cc1
O=C(Nc1ccc(Br)cc1C(=O)O)c1cc(-c2ccccc2C(F)(F)F)on1
Cc1c(C(=O)Nc2ccc(Br)cc2C(=O)O)noc1-c1ccccc1
O=C(Nc1ccc(Cl)cc1C(=O)O)c1cc(-c2ccc(C(F)(F)F)cc2)on1
COc1ccc(-c2cc(C(=O)Nc3ccc(Br)cc3C(=O)O)no2)cc1
O=C(Nc1ccc(Cl)cc1C(=O)O)c1cc(CCCc2ccccc2)on1
O=C(Nc1ccc(Br)cc1C(=O)O)c1cc(-c2ccccc2F)on1
